The results in this text go back to patent publication US11660293B2, “Substituted 2-azabicyclo[3.1.1]heptane and 2-azabicyclo[3.2.1]octane derivatives as orexin receptor antagonists” (Chronos Therapeutics Limited, priority 2017, dated 2023).

Series [1] deals with human Orexin type 1 receptors (Homo sapiens (Human), UniProt O43613). Kind of series: Scintillation Proximity Assay (SPA) binding assay, [3H]SB-674042 displacement, CHO-hOX1 membranes. The conditions noted are these: for OX1 pKi (SPA binding): Table 2, [3H]SB-674042 2 nM; for Ki: Table 1, [3H]SB-674042 2 nM, read-out: OX1 pKi (SPA binding) (converted).
Series [2] has as its target human Orexin type 2 receptors (Homo sapiens (Human), UniProt O43614). The series can be described thus: Scintillation Proximity Assay (SPA) binding assay, [3H]EMPA displacement, HEK-hOX2 membranes. Particulars: for OX2 pKi (SPA binding): Table 2, [3H]EMPA 2 nM; for Ki: Table 1, [3H]EMPA 2 nM, read-out: OX2 pKi (SPA binding) (converted). In general terms: Scintillation proximity formats need no separation of bound from free tracer.

A short description of series [3]: Measurement of brain fraction unbound (equilibrium dialysis). In kind it is in vitro ADME. Particulars: pH 7.4, rat brain homogenate, 37° C., read-out: FU brain (%, rat). The protocol:
Measurement of Brain Fraction Unbound (Equilibrium Dialysis)
Brain fractions unbound were determined using equilibrium dialysis in a 96-well format as described in Kalvass and Maurer, 2002. Brain homogenates were prepared using 2 ml/g CSF surrogate (7.30 g/l NaCl, 186.4 mg/l KCl, 239.9 mg/l MgCl2, 185.2 mg/l CaCl2), and 536.0 mg/l Na2HPO4.7H2O, pH 7.4). Dialysis membranes (12-14-kDA cutoff) obtained from Spectrum Laboratories Inc. (Rancho Dominguez, Calif.) were conditioned in water (HPLC grade) for 60 min, followed by 20 min in 20% ethanol, and 15 min in CSF surrogate.
Assay compound concentrations were 5 μM. Diluted brain homogenate was spiked with the compound of interest, and 150-μl aliquots were loaded into the 96-well equilibrium dialysis apparatus and dialyzed against an equal volume of CSF surrogate. Equilibrium was achieved by incubating the 96-well equilibrium dialysis apparatus in a temperature-controlled incubator at 37° C. for 5 h, using an orbital shaker at 125 rpm. At the end of the incubation period, 50-μl aliquots of brain homogenate and buffer were transferred to a 96-well plate, and the composition in each tube was balanced with control fluid to equalize the brain and buffer volumes. Sample extraction was performed by addition of 400 μl of acetonitrile containing internal standard (rolipram). The samples were then vortex-mixed and centrifuged, and 100 μl of supernatants was transferred into a 96-well plate, diluted with 200 μl of 16% acetonitrile/water, and analyzed by liquid chromatography-tandem mass spectrometry (LC-MS/MS).
The brain unbound fraction (FU brain) was calculated from the ratio of analyte/internal standard peak area ratios determined in buffer versus brain homogenate samples using equation (1), which accounts for the effect of tissue dilution on unbound fraction (Kalvass and Maurer, 2002):
[formula] where D is the dilution factor in brain homogenate and fu-diluted is the measured free fraction of diluted brain tissue. Results
Background: In equilibrium dialysis only unbound substance equilibrates across the membrane.

Chain of human Orexin type 1 receptors (O43613 whole entry): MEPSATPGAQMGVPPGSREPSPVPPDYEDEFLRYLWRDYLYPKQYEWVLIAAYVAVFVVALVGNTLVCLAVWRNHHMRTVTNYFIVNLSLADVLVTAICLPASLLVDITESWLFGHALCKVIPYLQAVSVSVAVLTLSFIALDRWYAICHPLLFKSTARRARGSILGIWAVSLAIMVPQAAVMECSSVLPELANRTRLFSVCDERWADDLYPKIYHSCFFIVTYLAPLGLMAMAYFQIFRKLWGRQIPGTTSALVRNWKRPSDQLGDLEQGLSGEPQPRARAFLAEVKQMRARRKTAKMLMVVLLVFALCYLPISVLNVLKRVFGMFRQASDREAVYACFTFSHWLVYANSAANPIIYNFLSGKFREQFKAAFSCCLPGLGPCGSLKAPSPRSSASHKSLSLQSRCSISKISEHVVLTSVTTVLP
Chain of human Orexin type 2 receptors (O43614 whole entry): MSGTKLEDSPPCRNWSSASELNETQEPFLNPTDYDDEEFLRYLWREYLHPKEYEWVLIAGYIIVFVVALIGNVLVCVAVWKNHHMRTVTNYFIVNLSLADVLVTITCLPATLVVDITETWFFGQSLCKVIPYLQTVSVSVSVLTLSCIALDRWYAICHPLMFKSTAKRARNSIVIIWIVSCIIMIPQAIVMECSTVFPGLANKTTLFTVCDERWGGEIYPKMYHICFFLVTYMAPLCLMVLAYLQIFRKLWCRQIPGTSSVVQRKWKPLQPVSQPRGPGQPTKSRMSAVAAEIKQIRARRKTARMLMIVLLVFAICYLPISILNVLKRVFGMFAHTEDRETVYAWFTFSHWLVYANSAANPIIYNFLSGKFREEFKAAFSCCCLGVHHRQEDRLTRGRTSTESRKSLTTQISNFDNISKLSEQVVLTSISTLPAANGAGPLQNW

Turning to `Cc1ccc(-n2nccn2)c(C(=O)N2C3CC(C3)[C@@H](C)C2CNc2cnc(C(F)(F)F)cn2)n1` (mixture of isomers) [Example 165, cis-N-({4-methyl-2-[6-methyl-3-(2H-1,2,3-triazol-2-yl)pyridine-2-carbonyl]-2-azabicyclo[3.1.1]heptan-3-yl}methyl)-5-(trifluoromethyl)pyrazin-2-amine], in series [1], the “OX1 pKi (SPA binding)” value is reported as 7.63. In addition, the “OX2 pKi (SPA binding)” value in series [2] is given as 4.83. Besides, the fraction unbound at 5 h, 5 μM in series [3] worked out at 0.0477.
For `Cc1ccc(-n2nccn2)c(C(=O)N2C3CC(C3)[C@@H](C)C2CNc2nc3cccnc3s2)n1` (single isomer, unassigned) [Example 186, N-({(3R,4S) or (3S,4R)-4-methyl-2-[6-methyl-3-(2H-1,2,3-triazol-2-yl)pyridine-2-carbonyl]-2-azabicyclo[3.1.1]heptan-3-yl}methyl)-[1,3]thiazolo[5,4-b]pyridin-2-amine] the same measures were 8.42, 5.36 and 0.147.
With `C[C@@H]1C2CC(C2)N(C(=O)c2nn(C)cc2-c2ncccn2)C1CNc1ccc(C(F)(F)F)cn1` (mixture of isomers) [Example 213, cis-N-({4-methyl-2-[1-methyl-4-(pyrimidin-2-yl)-1H-pyrazole-3-carbonyl]-2-azabicyclo[3.1.1]heptan-3-yl}methyl)-5-(trifluoromethyl)pyridin-2-amine], in series [1], the “OX1 pKi (SPA binding)” value is on record as 7.91. In series [2], the “OX2 pKi (SPA binding)” value stood at 4.39. In addition, the fraction unbound at 5 h, 5 μM in series [3] amounted to 0.0876.
With `Cc1ccc(-c2ncccn2)c(C(=O)N2C3CC(C3)[C@@H](C)[C@@H]2COc2ccc(F)cc2)n1` (single isomer, unassigned) [Example 93, (3S,4S or 3R,4R)-3-(4-fluorophenoxymethyl)-4-methyl-2-[6-methyl-3-(pyrimidin-2-yl)pyridine-2-carbonyl]-2-azabicyclo[3.1.]heptane], the Ki was 0.00195 µM in series [1] and 0.407 µM in series [2]. The fraction unbound at 5 h, 5 μM in series [3] came to 0.0258.
Turning to `C[C@@H]1C2CC(C2)N(C(=O)c2cc(F)ccc2-n2nccn2)C1CNc1cnc(C(F)(F)F)cn1` (single isomer, unassigned) [Example 223, N-{[(3R,4S) or (3S,4R)-2-[5-fluoro-2-(2H-1,2,3-triazol-2-yl)benzoyl]-4-methyl-2-azabicyclo[3.1.1]heptan-3-yl]methyl}-5-(trifluoromethyl)pyrazin-2-amine], the “OX1 pKi (SPA binding)” value in series [1] is recorded as 8.13. In addition, the “OX2 pKi (SPA binding)” value in series [2] is on record as 4.98. The fraction unbound at 5 h, 5 μM in series [3] is 0.022.
`Cc1ccc(-n2nccn2)c(C(=O)N2C3CC(C3)[C@@H](C)C2CNc2cnc(C(F)(F)F)cn2)n1` (single isomer, unassigned) [Example 167, N-{[(3R,4S) or (3S,4R)-4-methyl-2-[6-methyl-3-(2H-1,2,3-triazol-2-yl)pyridine-2-carbonyl]-2-azabicyclo[3.1.1]heptan-3-yl]methyl}-5-(trifluoromethyl)pyrazin-2-amine]: the “OX1 pKi (SPA binding)” value in series [1] is reported as 8.12. Also, the “OX2 pKi (SPA binding)” value in series [2] was 5.13. For the same molecule, the fraction unbound at 5 h, 5 μM in series [3] is 0.0593.
For `Cc1ccc(-n2nccn2)c(C(=O)N2C3CC(C3)[C@@H](C)C2CNc2ccc(C(F)(F)F)cn2)n1` (single isomer, unassigned) [Example 183, N-{[(3R,4S) or (3S,4R)-4-methyl-2-[6-methyl-3-(2H-1,2,3-triazol-2-yl)pyridine-2-carbonyl]-2-azabicyclo[3.1.1]heptan-3-yl]methyl}-5-(trifluoromethyl)pyridin2-amine], the “OX1 pKi (SPA binding)” value in series [1] amounted to 8.31. For the same molecule, the “OX2 pKi (SPA binding)” value in series [2] was 5.26. Besides, the fraction unbound at 5 h, 5 μM in series [3] turned out to be 0.0256.
For the molecule `C[C@@H]1C2CC(C2)N(C(=O)c2cc(C#N)ccc2-n2nccn2)C1CNc1nc2cccnc2s1` (single isomer, unassigned) [Example 233, 3-[(3R,4S) or (3S,4R)-4-methyl-3-[({[1,3]thiazolo[5,4-b]pyridin-2-yl}amino)methyl]-2-azabicyclo[3.1.1]heptane-2-carbonyl]-4-(2H-1,2,3-triazol-2-yl)benzonitrile], the “OX1 pKi (SPA binding)” value in series [1] is 8.41. Further, the “OX2 pKi (SPA binding)” value in series [2] is given as 5.11. In addition, the fraction unbound at 5 h, 5 μM in series [3] is 0.066.
For `C[C@@H]1C2CC(C2)N(C(=O)c2nn(C)cc2-c2ncccn2)C1CNc1ccc(C(F)(F)F)cn1` (single isomer, unassigned) [Example 215, N-{[(3R,4S) or (3S,4R)-4-methyl-2-{1-methyl-4-(pyrimidin-2-yl)-1H-pyrazole-3-carbonyl]-2-azabicyclo[3.1.1]heptan-3-yl]methyl}-5-(trifluoromethyl)pyridin-2-amine] the same measures were 8.15, 4.79 and 0.0761.
Take `C[C@@H]1C2CC(C2)N(C(=O)c2cc(Cl)ccc2-n2nccn2)C1CNc1cnc(C(F)(F)F)cn1` (single isomer, unassigned) [Example 205, N-({(3R,4S) or (3S,4R)2-[5-chloro-2-(2H-1,2,3-triazol-2-yl)benozyl]-4-methyl-2-azabicyclo[3.1.1]heptan-3-yl}methyl)-5-(trifluoromethyl)pyrazin-2-amine]: in series [1], the “OX1 pKi (SPA binding)” value is recorded as 8.59. The “OX2 pKi (SPA binding)” value in series [2] was 5.34. Moreover, the fraction unbound at 5 h, 5 μM in series [3] came to 0.0089.
For `Cc1ccc(-n2nccn2)c(C(=O)N2C3CC(C3)[C@H](C)C2COc2ccc(F)cc2)n1` (single isomer, unassigned) [Example 105, (3S,4S or 3R,4R)-3-[(4-fluorophenoxy)methyl]-4-methyl-2-[6-methyl-3-(2H-1,2,3-triazol-2-yl)pyridine-2-carbonyl]-2-azabicyclo[3.1.1]heptane], the Ki in series [1] was 0.00631 µM; in series [2], 1.32 µM. In series [3], the fraction unbound at 5 h, 5 μM is 0.0116.
For `Cc1nc(C(=O)N2C3CC(C3)[C@H](C)C2COc2ccc(F)cc2)c(-c2ncccn2)s1` (single isomer, unassigned) [Example 115, (3R,4R) or (3S,4S)-3-[(4-fluorophenoxy)methyl]-4-methyl-2-[2-methyl-5-(pyrimidin-2-yl)-1,3-thiazole-4-carbonyl]-2-azabicyclo[3.1.1]heptane], in series [1], the “OX1 pKi (SPA binding)” value amounted to 8.5. Moreover, the “OX2 pKi (SPA binding)” value in series [2] stood at 5.93. Besides, in series [3], the fraction unbound at 5 h, 5 μM was 0.0151.
On to `C[C@@H]1C2CC(C2)N(C(=O)c2cc(F)ccc2-n2nccn2)C1CNc1nc2cccnc2s1` (single isomer, unassigned) [Example 230, N-{[(3R,4S) or (3S,4R)-2-[5-fluoro-2-(2H-1,2,3-triazol-2-yl)benzoyl]-4-methyl-2-azabicyclo[3.1.1]heptan-3-yl]methyl}-[1,3]thiazolo[5,4-b]pyridin-2-amine], for which, in series [1], the “OX1 pKi (SPA binding)” value is 8.46. In addition, the “OX2 pKi (SPA binding)” value in series [2] stood at 5.32. Also, in series [3], the fraction unbound at 5 h, 5 μM worked out at 0.0438.
